Results published in patent US6737383B1, “Herbicidal oxadiazolidines” (priority 1999, dated 2004).

What was measured:
soybean = test: Test B pre/postemergence soybean; type: in vivo, Glycine max
How it was run: (§1)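 Herbicidal effect was estimated by eye on a ten-point control scale after plants spent twelve to sixteen days in a greenhouse following soil or foliar treatment. Foliar sprays targeted plants at one to four leaves; all doses were formulated in a non-phytotoxic solvent with surfactant.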

cocklebur = test: Test B pre/postemergence cocklebur; type: in vivo, Xanthium strumarium
How it was run: as §1

giant foxtail = test: Test B pre/postemergence giant foxtail; type: in vivo, Setaria faberii
How it was run: as §1

wheat = test: Test B pre/postemergence wheat; type: in vivo, Triticum aestivum
How it was run: as §1

wild oat = test: Test B pre/postemergence wild oat; type: in vivo, Avena fatua
How it was run: as §1

pigweed = test: Test B pre/postemergence pigweed; type: in vivo, Amaranthus retroflexus
How it was run: as §1

sugar beet = test: Test B pre/postemergence sugar beet; type: in vivo, Beta vulgaris
How it was run: as §1

blackgrass = test: Test B pre/postemergence blackgrass; type: in vivo, Alopecurus myosuroides
How it was run: as §1

velvetleaf = test: Test B pre/postemergence velvetleaf; type: in vivo, Abutilon theophrasti
How it was run: as §1

purple nutsedge = test: Test B pre/postemergence purple nutsedge; type: in vivo, Cyperus rotundus
How it was run: as §1

surinam grass = test: Test B pre/postemergence surinam grass; type: in vivo, Brachiaria decumbens
How it was run: as §1

corn = test: Test B pre/postemergence corn; type: in vivo, Zea mays
How it was run: as §1

bedstraw = test: Test B pre/postemergence bedstraw; type: in vivo, Galium aparine
How it was run: as §1

rape = test: Test B pre/postemergence rape; type: in vivo, Brassica napus
How it was run: as §1

crabgrass = test: Test B pre/postemergence crabgrass; type: in vivo, Digitaria sanguinalis
How it was run: as §1

morningglory = test: Test B pre/postemergence morningglory; type: in vivo, Ipomoea hederacea
How it was run: as §1

[1] = Postemergence, Rate 62 g/ha, scale of 0 to 10, 0 is no effect, 10 is complete control
[2] = Postemergence, Rate 125 g/ha, scale 0 to 10, 0 is no effect, 10 is complete control
[3] = Postemergence, Rate 500 g/ha, scale 0 to 10, 0 is no effect, 10 is complete control
[4] = Preemergence, Rate 62 g/ha, scale of 0 to 10 where 0 is no effect and 10 is complete control
[5] = Preemergence, Rate 125 g/ha, scale 0 to 10, 0 is no effect, 10 is complete control
[6] = Preemergence, Rate 500 g/ha, scale of 0 to 10 where 0 is no effect and 10 is complete control
[7] = Rate 250 g/ha, Postemergence, scale of 0 to 10 where 0 is no effect and 10 is complete control
[8] = Preemergence, Rate 500 g/ha, scale 0 to 10, 0 is no effect, 10 is complete control

CC(C)N(C(=O)n1oc(=O)n(CCCCF)c1=O)c1ccc(F)cc1F [Compound 522]
10: Soybean plant response rating (soybean; [6]) | Plant response rating, Giant foxtail (giant foxtail; [4]) | Giant foxtail plant response rating (giant foxtail; [5]) | Giant foxtail plant response rating (0 to 10 scale) (giant foxtail; Preemergence, Rate 250 g/ha) | Giant foxtail plant response rating (giant foxtail; [6]) | Plant response rating, Wild oats (wild oat; [4]) | Plant response rating, Redroot pigweed (pigweed; [4]) | Redroot pigweed plant response rating (pigweed; [5]) | Redroot pigweed plant response rating (0 to 10 scale) (pigweed; Preemergence, Rate 250 g/ha) | Redroot pigweed plant response rating (pigweed; [6]) | Nutsedge plant response rating (0 to 10 scale) (purple nutsedge; Preemergence, Rate 250 g/ha) | Nutsedge plant response rating (purple nutsedge; [6]) | Plant response rating, B. signalgrass (surinam grass; [4]) | Plant response rating, Bedstraw (bedstraw; [3]) | Plant response rating, Bedstraw (bedstraw; [4]) | Bedstraw plant response rating (bedstraw; [5]) | Bedstraw plant response rating (0 to 10 scale) (bedstraw; Preemergence, Rate 250 g/ha) | Bedstraw plant response rating (bedstraw; [8]) | Crabgrass plant response rating (crabgrass; [5]) | Crabgrass plant response rating (0 to 10 scale) (crabgrass; Preemergence, Rate 250 g/ha) | Crabgrass plant response rating (crabgrass; [6])
4: Soybean plant response rating (soybean; [1]) | Wild oats plant response rating (wild oat; [2]) | Wild oats plant response rating (0 to 10 scale) (wild oat; Preemergence, Rate 250 g/ha) | Redroot pigweed plant response rating (pigweed; [2]) | Plant response rating, Redroot pigweed (pigweed; [7]) | Plant response rating, Blackgrass (blackgrass; [4]) | Rape plant response rating (0 to 10 scale) (rape; Preemergence, Rate 250 g/ha) | Morningglory plant response rating (morningglory; [2]) | Morningglory plant response rating (morningglory; [6]) | Plant response rating, Morningglory (morningglory; [7])
2: Wheat plant response rating (0 to 10 scale) (wheat; Preemergence, Rate 250 g/ha) | Wild oats plant response rating (wild oat; [5]) | Velvetleaf plant response rating (velvetleaf; [1]) | Plant response rating, Velvetleaf (velvetleaf; [4]) | Plant response rating, Corn (corn; [4]) | Rape plant response rating (rape; [5]) | Morningglory plant response rating (morningglory; [5]) | Morningglory plant response rating (0 to 10 scale) (morningglory; Preemergence, Rate 250 g/ha)
8: Giant foxtail plant response rating (giant foxtail; [1]) | Giant foxtail plant response rating (giant foxtail; [2]) | Wheat plant response rating (wheat; [6]) | Blackgrass plant response rating (blackgrass; [1]) | Blackgrass plant response rating (blackgrass; [2]) | Plant response rating, Blackgrass (blackgrass; [3]) | Blackgrass plant response rating (blackgrass; [5]) | Plant response rating, Blackgrass (blackgrass; [7]) | Velvetleaf plant response rating (0 to 10 scale) (velvetleaf; Preemergence, Rate 250 g/ha) | Crabgrass plant response rating (crabgrass; [1]) | Crabgrass plant response rating (crabgrass; [2]) | Plant response rating, Crabgrass (crabgrass; [7])
3: Cocklebur plant response rating (cocklebur; [2]) | Plant response rating, Cocklebur (cocklebur; [3]) | Plant response rating, Cocklebur (cocklebur; [7]) | Corn plant response rating (corn; [2]) | Plant response rating, Corn (corn; [7]) | Morningglory plant response rating (morningglory; [1])
9: Plant response rating, Giant foxtail (giant foxtail; [3]) | Wild oats plant response rating (wild oat; [6]) | Plant response rating, Redroot pigweed (pigweed; [3]) | Blackgrass plant response rating (0 to 10 scale) (blackgrass; Preemergence, Rate 250 g/ha) | Blackgrass plant response rating (blackgrass; [6]) | Velvetleaf plant response rating (velvetleaf; [6]) | Nutsedge plant response rating (purple nutsedge; [5]) | B. signalgrass plant response rating (surinam grass; [5]) | B. signalgrass plant response rating (0 to 10 scale, 0 is no effect, 10 is complete control) (surinam grass; Preemergence, Rate 250 g/ha) | B. signalgrass plant response rating (surinam grass; [8]) | Corn plant response rating (corn; [6]) | Plant response rating, Bedstraw (bedstraw; [7]) | Plant response rating, Rape (rape; [3]) | Plant response rating, Crabgrass (crabgrass; [3]) | Plant response rating, Crabgrass (crabgrass; [4])
7: Plant response rating, Wild oats (wild oat; [3]) | Plant response rating, Wild oats (wild oat; [7]) | Sugarbeets plant response rating (sugar beet; [6]) | Plant response rating, Velvetleaf (velvetleaf; [3]) | Plant response rating, Velvetleaf (velvetleaf; [7]) | Plant response rating, B. signalgrass (surinam grass; [3]) | Plant response rating, B. signalgrass (surinam grass; [7]) | Corn plant response rating (corn; [5]) | Corn plant response rating (0 to 10 scale) (corn; Preemergence, Rate 250 g/ha)
6: Soybean plant response rating (soybean; [2]) | Plant response rating, Soybean (soybean; [3]) | Sugarbeets plant response rating (sugar beet; [1]) | Sugarbeets plant response rating (sugar beet; [2]) | Plant response rating, Sugarbeets (sugar beet; [3]) | Plant response rating, Sugarbeets (sugar beet; [7]) | Velvetleaf plant response rating (velvetleaf; [5]) | Rape plant response rating (rape; [6])
5: Plant response rating, Wheat (wheat; [3]) | Plant response rating, Wheat (wheat; [7]) | Plant response rating, Sugarbeets (sugar beet; [4]) | Sugarbeets plant response rating (sugar beet; [5]) | Sugarbeets plant response rating (0 to 10 scale) (sugar beet; Preemergence, Rate 250 g/ha) | Velvetleaf plant response rating (velvetleaf; [2]) | B. signalgrass plant response rating (surinam grass; [2]) | Plant response rating, Corn (corn; [3]) | Plant response rating, Morningglory (morningglory; [3])
0: Plant response rating, Soybean (soybean; [4]) | Soybean plant response rating (soybean; [5]) | Soybean plant response rating (0 to 10 scale) (soybean; Preemergence, Rate 250 g/ha) | Cocklebur plant response rating (cocklebur; [1]) | Plant response rating, Cocklebur (cocklebur; [4]) | Cocklebur plant response rating (cocklebur; [5]) | Cocklebur plant response rating (0 to 10 scale) (cocklebur; Preemergence, Rate 250 g/ha) | Wheat plant response rating (wheat; [1]) | Wheat plant response rating (wheat; [2]) | Plant response rating, Wheat (wheat; [4]) | Wheat plant response rating (wheat; [5]) | Wild oats plant response rating (wild oat; [1]) | Redroot pigweed plant response rating (pigweed; [1]) | Nutsedge plant response rating (purple nutsedge; [1]) | Nutsedge plant response rating (purple nutsedge; [2]) | Plant response rating, Nutsedge (purple nutsedge; [3]) | Plant response rating, Nutsedge (purple nutsedge; [4]) | Plant response rating, Nutsedge (purple nutsedge; [7]) | B. signalgrass plant response rating (surinam grass; [1]) | Corn plant response rating (corn; [1]) | Bedstraw plant response rating (bedstraw; [1]) | Bedstraw plant response rating (bedstraw; [2]) | Rape plant response rating (rape; [1]) | Rape plant response rating (rape; [2]) | Plant response rating, Rape (rape; [4]) | Plant response rating, Rape (rape; [7]) | Plant response rating, Morningglory (morningglory; [4])
